# Earlier results in patent US8835486B2, “Pharmaceutical formulation containing an HMG-COA reductase inhibitor and method for the preparation thereof” (priority 2006, dated 2014).
compound,measurement,value
CC(C)n1c(/C=C/C(O)CC(O)CC(=O)O)c(-c2ccc(F)cc2)c2ccccc21 (stereo not shown) [Fluvastatin],solubility in water,> 50 mg/mL
